{"source": "paper PMC7407834", "about": "“Development of an LDL Receptor-Targeted Peptide Susceptible to Facilitate the Brain Access of Diagnostic or Therapeutic Agents” (Biology, 2020)", "key": {"[1]": {"system": "HUVEC, HepaRG, ACBRI376 and 1321N1 cells", "experiment": "Endocytosis of rhodamine-coupled peptides, fluorescence microscopy (RRFL)", "assay_type": "cell-based, human", "conditions": "all studied cell models, p < 0.001 in HepaRG, p < 0.05 in HUVEC", "procedure": "Cells were seeded onto coverslips coated with collagen (0.2 mg/mL, Sigma-Aldrich, Overijse, Belgium) at a density of 8 × 10^5 cells/well and grown for 3 days.\nCells were incubated for 2 h at 37 °C in the dark with LRPep1-rho or LRPep2-rho (peptides coupled to rhodamine, 200 µM in culture medium for HepaRG and HUVEC, 25 µM for ACBRI376 and 1321N1); the negative control was incubated with culture medium. The use of the rhodamine as a fluorescent probe was based on our previous experience with labeled peptides. Cells were rinsed two times with PBS (per liter: 8 g NaCl, 0.2 g KCl, 2.31 g Na2HPO4 × 12 H2O, 0.2 g KH2PO4, pH 7.4). […]\nFluorescence was observed using a Leica DM2000 microscope equipped with a light source EL 6000 and a DFC 425C camera (Leica Microsystems, Groot Bijgaarden, Belgium).\nFigure 4 Endocytosis of the peptides LRPep1-rho and LRPep2-rho (stained in red) in (A) HUVEC and HepaRG cells and (B) ACBRI376 and 1321N1 cells. […] (C–F) The endocytosis of peptides, as well as the expression of LDLR, was semi-quantitatively evaluated by the measurement of fluorescent labeling using the ImageJ software and was normalized to the number of cells and to the background, giving the relative ratio of fluorescent labeling (RRFL); *: p < 0.05, **: p < 0.001. […]"}, "[2]": {"system": "ACBRI376 cells", "experiment": "Colocalization of LRPep2 with caveolae and lysosomes, ACBRI376", "assay_type": "cell-based, human", "procedure": "(§1) Cells were first incubated with LRPep2-rho, as described above (cf. 2.4. Evaluation of the endocytosis potential of peptides LRPep1 and LRPep2), before being permeabilized with methanol. Then, cells were blocked with PBS supplemented with 5% NGS and 0.3% Triton X-100. Caveolae and lysosomes were detected using anti-caveolin 1 and anti-LAMP1 (Lysosomal-Associated Membrane Protein 1) antibodies, respectively, made in rabbit (both from Santa Cruz, Heidelberg, Germany) and incubated overnight at 4 µg/mL in PBS. Finally, cells were incubated for 1 h with an anti-rabbit IgG made in goat coupled to fluorescein (Vector Labconsult) at 20 µg/mL in phosphate buffer pH 7.8 supplemented with 0.5% BSA. Cells were mounted with Vectashield mounting medium with DAPI."}, "[3]": {"system": "HepaRG cells", "experiment": "Colocalization of LRPep2 with caveolae and lysosomes, HepaRG", "assay_type": "cell-based", "conditions": "p < 0.001", "procedure": "as §1"}, "[4]": {"system": "N18(H) cells", "experiment": "Colocalization of LRPep2 with caveolae and lysosomes, N18(H)", "assay_type": "cell-based", "conditions": "differentiated N18(H) cells", "procedure": "Experiments on N18(H) cells were performed after differentiation. Cells were immobilized on the appropriate support, and the differentiation was induced the second day, using medium containing 0.2% FBS for 48 h.\nas §1"}, "[5]": {"system": "1321N1 cells", "experiment": "Colocalization of LRPep2 with caveolae and lysosomes, 1321N1", "assay_type": "cell-based", "procedure": "as §1"}}, "data": [{"sequence": "HPWCCGLRLDLR [LRPep2]", "values": [{"measurement": "Endocytosis of the peptide compared with the other peptide", "setting": "[1]", "value": "more effective than that of peptide LRPep1"}, {"measurement": "Endocytosis pathway", "setting": "[2]; ACBRI376, caveolin-1 fluorescence increased (p < 0.05), LAMP1 decreased (p < 0.05)", "value": "endocytosed by the non-degradation pathway involving caveolae"}, {"measurement": "Mander's coefficient (M), colocalization of rhodamine with caveolin-1", "setting": "[2]; ACBRI376 cells, LRPep2-rho 25 µM, 2 h 37 °C, Figure S4", "value": 82.7, "unit": "%"}, {"measurement": "Endocytosis pathway", "setting": "[3]", "value": "significant increase of fluorescence was observed for lysosomes"}, {"measurement": "Endocytosis pathway", "setting": "[4]", "value": "both pathways"}, {"measurement": "Endocytosis pathway", "setting": "[5]", "value": "both pathways"}]}]}
